From patent US20220146526A1, “METHOD FOR EVALUATING SAMPLE, ANALYSIS METHOD, METHOD FOR DETECTING DEGRADED SAMPLE, MARKER FOR DETECTING DEGRADED BLOOD PLASMA SAMPLE, AND MARKER FOR DETECTING DEGRADED SERUM SAMPLE” (SHIMADZU CORPORATION, priority 2019, published 2022)

Assays:
Format in all cases: physicochemical, human
[1] = LC/MS of blood plasma sample: time from blood collection to centrifugation (Table D); details: for Increase or decrease: detection intensity, blood collection to centrifugation, after 12 hours vs 15 minutes; for Rate of increase or decrease (second value, decrease) / Rate of increase or decrease (first value, increase): different from individual to individual, relative to 1 at 15 minutes, collection to centrifugation, after 12 hours; for Rate of increase or decrease (second value, decrease): individuals with decrease; for Rate of increase or decrease (first value, increase): individuals with increase
Method: (§1) At room temperature, 5 mL of blood from a healthy subject was taken into a blood-collecting vessel containing EDTA, and the blood-collecting vessel was inverted for mixing, then cooled, and allowed to stand at 4° C. Here, in order to investigate how the detection intensity of molecules contained in the sample was affected in a case where the time to cooling was set to 5 minutes or more as compared to that in a case where the time to cooling was set to 1 minute or less, preparations were performed under both the former condition and the latter condition. After standing, the blood sample was subjected to centrifugation under a condition of 4° C., 3000 rpm, and 15 minutes. […] After centrifugation, the blood-collecting vessel was left to stand at room temperature for 30 minutes, and the blood plasma was isolated during this 30 minutes. The obtained blood plasma sample was frozen and stored. Here, in order to investigate how the detection intensity of molecules contained in the sample was affected in cases where freezing and thawing was performed 4 times, 6 times, and 10 times after freezing as compared to that in a case where freezing and thawing was performed 2 times after freezing, freezing and thawing was performed under the respective conditions of 2, 4, 6, and 10 times.
(§2) Frozen blood plasma samples and serum samples were subjected to GC/MS or LC/MS. In GC/MS, the blood plasma samples and serum samples were subjected to methoxymation and trimethylsilylation and then introduced to GC-MS.
(§3) Analysis column: Discovery HS F5-3 (inner diameter of 2.1 mm, length of 150 mm, film thickness of 3 μm) (Sigma-Aldrich)
(§4) Column temperature: 40° C.
(§5) (A) 0.1% formic acid (dissolved in water)
(§6) (B) 0.1% formic acid (dissolved in acetonitrile)
(§7) Flow velocity: 0.25 mL/min
(§8) Ionization method: electrospray
(§9) Temperature: • Desolvation Line (DL) temperature: 250° C. • Heat block temperature: 400° C. • Interface temperature: 300° C.
(§10) Gas flow rate: • Nebulizer gas flow rate: 3.0 L/min • Drying gas flow rate: 10.0 L/min • Heating gas flow rate: 10.0 L/min
(§11) Mode: multiple reaction monitoring (MRM)
The rate of increase or decrease in Table D is the value of detection intensity relative to 1 that is the detection intensity in a case where the time from blood collection to centrifugation is set to 15 minutes.

[2] = GC/MS of serum sample: time from centrifugation to isolation (Table H); design: key to Rate of increase or decrease / Rate of increase or decrease (first value, increase): detection intensity relative to 1 at 30 min centrifugation-to-isolation; details: for Rate of increase or decrease: detection intensity relative to 1 at 30 minutes; for Increase or decrease: detection intensity
Method: (§12) After standing, the blood sample was subjected to centrifugation under a condition of room temperature, 3500 rpm, and 5 minutes. […] After centrifugation, the blood-collecting vessel was left to stand at room temperature, and the serum was isolated during this time. Here, in order to investigate how the detection intensity of molecules contained in the sample was affected in cases where the time during which the blood-collecting vessel was left at room temperature was set to 1 hour and 6 hours as compared to that in a case where the time was set to 30 minutes, preparations were performed under the respective conditions of 30 minutes, 1 hour, and 6 hours. The obtained serum sample was frozen and stored. Here, in order to investigate how the detection intensity of molecules contained in the sample was affected in cases where freezing and thawing was performed 4 times, 6 times, and 10 times after freezing as compared to that in a case where freezing and thawing was performed 2 times after freezing, freezing and thawing was performed under the respective conditions of 2, 4, 6, and 10 times.
as §2
(§13) GC/MS was conducted using GCMS·TQ8040 (Shimadzu Corporation) that was a GC·MS equipped with AOC·20i (Shimadzu Corporation) as an autosampler.
(§14) Column: BPX5 (inner diameter of 0.25 mm, length of 30 m, and film thickness of 0.25 μm) (SGE)
(§15) Column temperature: maintained at 60° C. for 2 minutes, then raised at 15° C./min, and maintained at 330° C. for 3 minutes.
(§16) Inlet temperature: 250° C.
(§17) Carrier gas control mode: constant linear velocity of 39.0 cm/sec
(§18) Sample introduction method: split (split ratio of 30:1) Injection volume: 1 μL
(§19) Ionization method: electron ionization
(§20) Ionization current: 60 μA
(§21) Interface temperature: 280° C.
(§22) Ion source temperature: 200° C.
as §11
The rate of increase or decrease in Table H is the value of detection intensity relative to 1 that is the detection intensity in a case where the time from centrifugation to isolation is set to 30 minutes.

[3] = GC/MS of serum sample: number of times of freezing and thawing (Table I); design: key to Rate of increase or decrease / Rate of increase or decrease (first value, increase): detection intensity relative to 2 freeze-thaw cycles = 1; details: for Rate of increase or decrease: detection intensity relative to 1 at 2 times; for Number of times when compound is affected: detection intensity changed by 30% or more vs 2 times of freezing and thawing
Method: as §12, §2, §13, §14, §15, §16, §17, §18, §19, §20, §21, §22, §11
The rate of increase or decrease in Table I is the value of detection intensity relative to 1 that is the detection intensity in a case where the number of times of freezing and thawing is set to 2 times.

[4] = LC/MS of serum sample: number of times of freezing and thawing (Table M); design: key to Rate of increase or decrease: detection intensity relative to 1 at 2 freeze-thaw cycles; details: for Rate of increase or decrease: 6 times of freezing and thawing; for Number of times when compound is affected / Increase or decrease: serum sample, LC/MS; for Number of times when compound is affected: detection intensity changed by 30% or more vs 2 times of freezing and thawing; for Increase or decrease: detection intensity vs 2 times of freezing and thawing
Method: as §12, §2, §3, §4, §5, §6, §7, §8, §9, §10, §11
The rate of increase or decrease in Table M is the value of detection intensity relative to 1 that is the detection intensity in a case where the number of times of freezing and thawing is set to 2 times.

[5] = GC/MS of blood plasma sample: time from blood collection to centrifugation (Table A); details: for Rate of increase or decrease: detection intensity relative to 1 at 15 minutes; for Rate of increase or decrease / Increase or decrease: blood collection to centrifugation; for Increase or decrease: detection intensity
Method: as §1, §2, §13, §14, §15, §16, §17, §18, §19, §20, §21, §22, §11
The rate of increase or decrease in Table A is the value of detection intensity relative to 1 that is the detection intensity in a case where the time from blood collection to centrifugation is set to 15 minutes.

[6] = GC/MS of serum sample: time from blood collection to centrifugation (Table G); details: blood collection to centrifugation; for Rate of increase or decrease: detection intensity relative to 1 at 15 minutes; for Increase or decrease: detection intensity
Method: as §12, §2, §13, §14, §15, §16, §17, §18, §19, §20, §21, §22, §11
The rate of increase or decrease in Table G is the value of detection intensity relative to 1 that is the detection intensity in a case where the time from blood collection to centrifugation is set to 15 minutes.

[7] = serum, GC/MS, freezing and thawing 10 times
[8] = detection intensity, serum, GC/MS, freezing and thawing 10 times vs 2 times
[9] = 10 times of freezing and thawing
[10] = serum sample, GC/MS, detection intensity vs 2 times of freezing and thawing

CCC(N)C(=O)O (stereo not shown) [2-Aminobutyric acid]
Increase or decrease [1]: Different from individual
Rate of increase or decrease (second value, decrease) [1]: 0.65
Rate of increase or decrease (first value, increase) [1]: 1.53
Rate of increase or decrease ([2]; after 6 hours): 1.60
Increase or decrease ([2]; after 6 hours vs 30 minutes): Increase
Rate of increase or decrease [3, 7]: 2.63
Increase or decrease [3, 8]: Increase
Rate of increase or decrease ([4]; relative to 1 at 2 times, different from individual to individual, first value (increase)): 1.31
Rate of increase or decrease ([4]; relative to 1 at 2 times, different from individual to individual, second value (decrease)): 0.61
Number of times when compound is affected [4]: 6 times
Increase or decrease [4]: Different from individual

CC(CN)C(=O)O (stereo not shown) [3-Aminoisobutyric acid]
Rate of increase or decrease ([5]; after 12 hours): 1.44
Increase or decrease ([5]; after 12 hours vs 15 minutes): Increase
Rate of increase or decrease [3, 7]: 1.47
Increase or decrease [3, 8]: Increase

O=C(O)C(O)Cc1ccc(O)cc1 (stereo not shown) [4-Hydroxyphenyllactic acid]
Rate of increase or decrease ([5]; after 12 hours): 1.33
Increase or decrease ([5]; after 12 hours vs 15 minutes): Increase
Rate of increase or decrease ([2]; after 1 hour): 0.64
Increase or decrease ([2]; after 1 hour vs 30 minutes): Decrease

O=C(O)C=C(CC(=O)O)C(=O)O [Aconitic acid]
Rate of increase or decrease ([5]; after 4 hours): 0.41
Increase or decrease ([5]; after 4 hours vs 15 minutes): Decrease
Rate of increase or decrease ([6]; after 4 hours): 1.52
Increase or decrease ([6]; after 4 hours vs 15 minutes): Increase
Rate of increase or decrease ([2]; after 1 hour): 0.04
Increase or decrease ([2]; after 1 hour vs 30 minutes): Decrease

CCCCC/C=C\C/C=C\C/C=C\C/C=C\CCCC(=O)O [Arachidonic acid]
Rate of increase or decrease ([5]; after 4 hours): 1.56
Increase or decrease ([5]; after 4 hours vs 15 minutes): Increase
Rate of increase or decrease [3, 7]: 1.52
Increase or decrease [3, 8]: Increase

CC(C)CCC[C@@H](C)[C@H]1CC[C@H]2[C@@H]3CC=C4C[C@@H](O)CC[C@]4(C)[C@H]3CC[C@]12C [Cholesterol]
Rate of increase or decrease ([5]; after 12 hours): 1.38
Increase or decrease ([5]; after 12 hours vs 15 minutes): Increase

CCCCC/C=C\C/C=C\CCCCCCCC(=O)O [Linoleic acid]
Rate of increase or decrease ([5]; after 12 hours): 1.34
Increase or decrease ([5]; after 12 hours vs 15 minutes): Increase

CCCCCCCCCCCCCC(=O)O [Myristic acid]
Rate of increase or decrease ([5]; after 12 hours): 1.55
Increase or decrease ([5]; after 12 hours vs 15 minutes): Increase
Rate of increase or decrease ([6]; after 8 hours): 1.30
Increase or decrease ([6]; after 8 hours vs 15 minutes): Decrease

CCCCCCCC/C=C\CCCCCCCC(=O)O [Oleic acid]
Rate of increase or decrease ([5]; after 12 hours): 4.05
Increase or decrease ([5]; after 12 hours vs 15 minutes): Increase

CCCCCCCCCCCCCCCC(=O)O [Palmitic acid]
Rate of increase or decrease ([5]; after 12 hours): 4.05
Increase or decrease ([5]; after 12 hours vs 15 minutes): Increase

O=C(CO)[C@H](O)[C@@H](O)[C@H](O)CO [Sorbose]
Increase or decrease ([5]; after 4 hours vs 15 minutes): Different from individual
Rate of increase or decrease (second value, decrease) ([5]; different from individual to individual, individuals with decrease, relative to 1 at 15 minutes, collection to centrifugation, after 4 hours): 0.67
Rate of increase or decrease (first value, increase) ([5]; different from individual to individual, individuals with increase, relative to 1 at 15 minutes, collection to centrifugation, after 4 hours): 2.10
Rate of increase or decrease ([6]; after 4 hours): 1.53
Increase or decrease ([6]; after 4 hours vs 15 minutes): Increase
Rate of increase or decrease [3, 9]: 0.68
Number of times when compound is affected ([3]; serum sample, GC/MS): 10 times
Increase or decrease [3, 10]: Decrease

CCCCCCCCCCCCCCCCCC(=O)O [Stearic acid]
Rate of increase or decrease ([5]; after 12 hours): 2.13
Increase or decrease ([5]; after 12 hours vs 15 minutes): Increase
Rate of increase or decrease [3, 9]: 1.33
Number of times when compound is affected ([3]; serum sample, GC/MS): 10 times
Increase or decrease [3, 10]: Increase

N[C@@H](Cc1c[nH]c2ccccc12)C(=O)O [Tryptophan]
Increase or decrease [1]: Different from individual
Rate of increase or decrease (second value, decrease) [1]: 0.66
Rate of increase or decrease (first value, increase) [1]: 1.62
Rate of increase or decrease ([4]; detection intensity relative to 1 at 2 times): 0.66
Number of times when compound is affected [4]: 6 times
Increase or decrease [4]: Decrease

NCCc1ccc(O)cc1 [Tyramine]
Rate of increase or decrease ([6]; after 4 hours): 2.37
Increase or decrease ([6]; after 4 hours vs 15 minutes): Increase
Rate of increase or decrease ([2]; after 6 hours): 3.34
Increase or decrease ([2]; after 6 hours vs 30 minutes): Increase
Rate of increase or decrease [3, 9]: 3.78
Number of times when compound is affected ([3]; serum sample, GC/MS): 10 times
Increase or decrease [3, 10]: Increase

O=c1cc[nH]c(=O)[nH]1 [Uracil]
Rate of increase or decrease ([6]; after 4 hours): 1.38
Increase or decrease ([6]; after 4 hours vs 15 minutes): Increase
Rate of increase or decrease ([2]; after 6 hours): 4.84
Increase or decrease ([2]; after 6 hours vs 30 minutes): Increase
Rate of increase or decrease ([3]; serum, GC/MS, freezing and thawing 6 times): 1.54
Increase or decrease ([3]; detection intensity, serum, GC/MS, freezing and thawing 6 times vs 2 times): Increase
